Data: patent US11541029B2, “High penetration compositions and their applications” (Techfields Pharma Co., Ltd., priority 2008, dated 2023)

Assays:
[1] = test system: human myeloma cell line implanted into mice; assay: Survival and weight loss of myeloma mice (Example 111); type: in vivo; details: for Weight Loss: day 21; for Life Elongation Rate / None Disease Rate / Survival Period: n=7
Text: A human myeloma cell line derived from the ascites of a patient with multiple myeloma was implanted into mice. The mice was divided into 11 groups: control group (A, orally), melphalan (B1 and B2, orally), chlorambucil (C1 and C2, orally), N,N-diethylaminoethyl 4-[bis(2-chloroethyl)amino]benzenebutyrate.HBr (D1 and D2, transdermally), 4-[bis(2-chloroethyl)amino]-N-acetyl-L-phenylalanine N,N-diethylaminoethyl ester hydrobromide (E1 and E2, transdermally in 5% aqueous solution), and diethylaminoethyl 4-[bis(2-methylsulfonylethyl)amino]benzenebutyrate.HCl (F1 and F2, transdermally in 5% aqueous solution). The body weight loss of mice was determined on day 21.

[2] = test system: human myeloma cell line implanted into mice; assay: Survival of mice with multiple myeloma (Example 110, Study B); type: in vivo; details: n=5
Procedure: Study B: For evaluation of antitumor activity, a human myeloma cell line derived from the ascites of a patient with multiple myeloma was implanted into mice. The experiment was carried out on 17 groups of mice. Control group (A, orally), chlorambucil (group B1: 1 mg/kg, orally, group B2, 3 mg/kg, orally, group B3:1 mg/kg, transdermally, and group B4: 3 mg/kg, transdermally), melphalan (group C1: 1 mg/kg, orally, group C2, 3 mg/kg, orally, group C3:1 mg/kg, transdermally, and group C4: 3 mg/kg, transdermally), N,N-diethylaminoethyl 4-[bis(2-chloroethyl)amino]benzenebutyrate.HBr (the HPC of chlorambucil (group D1: 1 mg/kg, orally, group D2, 3 mg/kg, orally, group D3:1 mg/kg, transdermally, and group D4: 3 mg/kg, transdermally), and 4-[bis(2-chloroethyl)amino]-N-acetyl-L-phenylalanine N,N-diethylaminoethyl ester hydrobromide (the HPC of melphalan) (group E1: 1 mg/kg, orally, group E2, 3 mg/kg, orally, group E3:1 mg/kg, transdermally, and group E4: 3 mg/kg, transdermally).

[3] = test system: Human breast cancer cells (BCAP-37); assay: Human breast cancer xenograft in nude mice
Procedure: Human breast cancer cells (BCAP-37, 2-3 mm^3 of tumor tissue was used in each mouse) were subcutaneously xenografted into nude mice (BALB, 12 groups, 7 mice each group). […] 50 μl of 5% (equal to 2.5 mg of the HPCs) diethylaminoethyl acetylsalicylate.HCl (P-1, in pure water); 1-piperidinepropyl 2[(2,6-dichlorophenyl)amino]benzene acetate.HCl (P-2, in water), 1-pyrrolidinepropyl 2-(3-benzoylphenyl) propionate.HCl (P-3, in water), 4-piperidinemethyl 2-(3-phenoxyphenyl)propionate.HCl (P-4, in water), 3-piperidinemethyl 2-(ρ-isobutylphenyl) propionate.HCl (P-5, in water), diethylaminoethyl 1-(p-chlorobenzoyl)-5-methoxy-2-methylindole 3-acetate.HCl (P-11, in water), 2-(4-morpholinyl)ethyl (Z)-5-fluoro-2-methyl-1-[(4-methylsulfinyl)phenylmethylene]-1H-indene-3-acetate.

[4] = Distribution in organs of rats killed with CO2 (absence of general circulation); details: 5 hrs after 0.3 mmol/kg diethylaminoethyl acetylsalicylate HCl salt on back of killed rats;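 note: tissue concentration in nmol/g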
Procedure: 0.3 mmol/kg of diethylaminoethyl acetylsalicylate HCl salt (10% in pure water) was applied to the back of rats (10 cm^2) which were killed with CO2. The rats were shaken for 5 hrs, then the HPCs and parent drugs in organs of rats were determined.

[5] = 1.5 mg/kg per day, transdermally
[6] = 50 μl of 5% topically every 8 hours
[7] = 50 μl of 5% topically every 8 hours, in g (unit assumed)

## Br.CCN(CC)CCOC(=O)[C@H](Cc1ccc(N(CCCl)CCCl)cc1)NC(C)=O [4-[bis(2-chloroethyl)amino]-N-acetyl-L-phenylalanine N,N-diethylaminoethyl ester hydrobromide]
[1]; [5]
  Weight Loss: 5%
  Life Elongation Rate: 272%
  None Disease Rate: 4/7
  Survival Period: 118.5 ± 7.6 days
[1]; 3 mg/kg per day, transdermally
  Weight Loss: 9%
  Life Elongation Rate: 265%
  None Disease Rate: 3/7
  Survival Period: 115.2 ± 6.8 days
[2]; 1 mg/kg per day, orally
  Life Elongation Rate: 151%
  Survival Period: 68.7 ± 5.1 days
[2]; 1 mg/kg per day, transdermally
  Life Elongation Rate: 190%
  Survival Period: 86.7 ± 4.5 days
[2]; 3 mg/kg per day, orally
  Life Elongation Rate: 187%
  Survival Period: 85.2 ± 4.3 days
[2]; 3 mg/kg per day, transdermally
  Life Elongation Rate: 192%
  Survival Period: 87.5 ± 4.2 days

## Br.CCN(CC)CCOC(=O)CCCc1ccc(N(CCCl)CCCl)cc1 [N,N-diethylaminoethyl 4-[bis(2-chloroethyl)amino]benzenebutyrate.HBr]
[1]; [5]
  Weight Loss: 7%
  Life Elongation Rate: 282%
  None Disease Rate: 4/7
  Survival Period: 122.5 ± 7.3 days
[1]; 3 mg/kg per day, transdermally
  Weight Loss: 10%
  Life Elongation Rate: 269%
  None Disease Rate: 4/7
  Survival Period: 117.2 ± 6.1 days
[2]; 1 mg/kg per day, orally
  Life Elongation Rate: 158%
  Survival Period: 71.7 ± 3.3 days
[2]; 1 mg/kg per day, transdermally
  Life Elongation Rate: 188%
  Survival Period: 85.7 ± 4.4 days
[2]; 3 mg/kg per day, orally
  Life Elongation Rate: 194%
  Survival Period: 88.5 ± 3.2 days
[2]; 3 mg/kg per day, transdermally
  Life Elongation Rate: 201%
  Survival Period: 91.5 ± 4.7 days

## CCN(CC)CCOC(=O)Cc1c(C)n(C(=O)c2ccc(Cl)cc2)c2ccc(OC)cc12.Cl [P-11, diethylaminoethyl 1-(p-chlorobenzoyl)-5-methoxy-2-methylindole 3-acetate.HCl]
[3]; [6]
  tumor Size at day 42: 230 ± 105 mm^3
[3]; [7]
  Weight of mice at day 42: 23 ± 2

## CC1=C(CC(=O)OCCN2CCOCC2)c2cc(F)ccc2/C1=C\c1ccc([S+](C)[O-])cc1.Cl (stereo not drawn) [P-12, 2-(4-morpholinyl)ethyl (Z)-5-fluoro-2-methyl-1-[(4-methylsulfinyl)phenylmethylene]-1H-indene-3-acetate. HCl]
[3]; [6]
  tumor Size at day 42: 240 ± 60 mm^3
[3]; in vivo
  Weight of mice at day 42: 23 ± 3

## CCN(CC)CCOC(=O)Cc1ccccc1Oc1ccc(Cl)cc1Cl.Cl [P-19, diethylaminoethyl 2-(2,4-dichlorophenoxy)benzeneacetate.HCl]
[3]; [6]
  tumor Size at day 42: 260 ± 55 mm^3
[3]; in vivo
  Weight of mice at day 42: 22 ± 2

## CCN(CC)CCOC(=O)C(C)c1ccc2c(c1)C(=O)Cc1cc(C)ccc1O2.Cl (stereo not drawn) [P-37, diethylaminoethyl 2-(8-methyl-10,11-dihydro-11-oxodibenz(b,f)oxepin-2-yl)propionate.HCl]
[3]; [6]
  tumor Size at day 42: 270 ± 70 mm^3
[3]; in vivo
  Weight of mice at day 42: 23 ± 3

## Cl.O=C(OCCCN1CCCC1)c1ccccc1Nc1cccc(C(F)(F)F)c1 [P-48]
[3]; [6]
  tumor Size at day 42: 280 ± 50 mm^3
[3]; [7]
  Weight of mice at day 42: 22 ± 3

## CN(C)CCCC(=O)OC1=C(C(=O)Nc2ccccn2)N(C)S(=O)(=O)c2ccccc21.Cl [P-51, 4-N,N-dimethylaminobutyryloxy-2-methyl-N-2-pyridinyl-2H,1,2-benzothiazine-3-carboxamide 1,1-dioxide.HCl]
[3]; [6]
  tumor Size at day 42: 390 ± 55 mm^3
[3]; in vivo
  Weight of mice at day 42: 23 ± 2

## CCN(CC)CCOC(=O)CCCc1ccc(N(CCS(C)(=O)=O)CCS(C)(=O)=O)cc1.Cl [diethylaminoethyl 4-[bis(2-methylsulfonylethyl)amino]benzenebutyrate.HCl]
[1]; [5]
  Weight Loss: 7%
  Life Elongation Rate: 259%
  None Disease Rate: 4/7
  Survival Period: 112.5 ± 8.7 days
[1]; 3 mg/kg per day, transdermally
  Weight Loss: 11%
  Life Elongation Rate: 256%
  None Disease Rate: 3/7
  Survival Period: 111.2 ± 5.9 days

## CCN(CC)CCOc1ccccc1C(=O)O [diethylaminoethyl salicylic acid]
[4]
  concentration in Leg muscle: 6.2 ± 3.2 nmol/g
  concentration in kidney: 3.1 ± 1.6 nmol/g
  concentration in liver: 1.5 ± 1.2 nmol/g
  concentration in pancreas: 3.1 ± 1.1 nmol/g
  concentration in stomach: 3.2 ± 1.3 nmol/g

## N[C@@H](Cc1ccc(N(CCCl)CCCl)cc1)C(=O)O [melphalan, reference compound]
[1]; 1.5 mg/kg per day, orally
  Weight Loss: 10%
  Life Elongation Rate: 121%
  None Disease Rate: 0/7
  Survival Period: 52.7 ± 4.3 days
[1]; 3 mg/kg per day, orally
  Weight Loss: 20%
  Life Elongation Rate: 192%
  None Disease Rate: 2/7
  Survival Period: 83.5 ± 5.8 days
[2]; 1 mg/kg per day, orally
  Life Elongation Rate: 106%
  Survival Period: 48.1 ± 5.3 days
[2]; 1 mg/kg per day, transdermally
  Life Elongation Rate: 98%
  Survival Period: 44.7 ± 3.6 days
[2]; 3 mg/kg per day, orally
  Life Elongation Rate: 155%
  Survival Period: 70.5 ± 3.2 days
[2]; 3 mg/kg per day, transdermally
  Life Elongation Rate: 100%
  Survival Period: 45.6 ± 3.6 days

## O=C(O)c1ccccc1O [salicylic acid]
[4]
  concentration in Leg muscle: 41.4 ± 11.2 nmol/g
  concentration in kidney: 21.2 ± 7.6 nmol/g
  concentration in liver: 12.2 ± 6.1 nmol/g
  concentration in pancreas: 14.1 ± 1.2 nmol/g
  concentration in stomach: 25.1 ± 2.4 nmol/g
